pEC50, pIC50: −log10 of the molar value. Where two headings read alike, the source gives them in different places.
Assays:
female Balb/c mice = assay: Combined mouse endotoxin-stimulated TNFα release and locomotor activity assay (mobility); type: in vivo
Protocol: The purpose of this study was to determine the efficacy of PDE4 inhibitors in vivo in an LPS mouse model together with a determination with respect to central nervous system (CNS) side-effects manifested by a decrease in spontaneous mobility.
The test animals were female Balb/c mice, having an average weight of about 20 g. […] Individual dose volumes (about 150 μL) were adjusted based on the body weights measured. One hour later, 5 mg/kQ LPS in a final volume of 200 μL was injected via the tail vein to each animal. Ninety minutes following the LPS treatment, the animals were bled and serum samples were collected before being stored at −70° C. until assayed.
Movement of the X-Y plane, or rearing up on the hind legs, was quantified by counting the number of “light-beam” crosses per unit of time. A decrease in the number of activity events is directly proportional to the mobility or immobilization of the animal. The quantitative scoring correlated well with the subjective measurements described above.
The following table summarizes the mouse locomotor activity assay as mobility (% activity) obtained by the above-described method: […]

[1] = system: TNFα secretion in human peripheral blood lymphocytes; assay: Lipopolysaccharide-stimulated TNFα release from human peripheral blood lymphocytes; type: cell-based; conditions: for pEC50: Lymphocyte, LPS-stimulated TNFα release from human PBL
Protocol: The compounds of structural formula (II) also were tested for an ability to reduce TNFα secretion in human peripheral blood lymphocytes. The ability to reduce TNFα secretion is related to the EC50 values i.e., the effective concentration pf the compound capable of inhibiting 50% of the total TNFα).
To assess the ability of a compound to reduce TNFα secretion in human peripheral blood lymphocytes (PBL), the following tests were performed.
Heparinized blood (approximately 30 mL) drawn from human volunteers was mixed 1:1 with Dulbecco's modified phosphate-buffered saline. This mixture was mixed 1:1 with HISTOPAQUE® and centrifuged at 1,500 rpm at room temperature without braking in the swinging bucket of a Beckman model TJ6 centrifuge. Erythrocytes were centrifuged to the bottom of the tubes, and serum remained at the surface of the tubes. A layer containing lymphocytes sedimented between the serum and HISTOPAQUE® layers, and was removed by aspiration to a fresh tube. The cells were quantified and adjusted to […] and a 100 μL aliquot is placed into the wells of a 96 well plate. Test compounds and RPMI media (Gibco/BRL Life Sciences) are added to each of the wells 15 minutes prior to addition of bacterial LPS ([…]). The mixture was allowed to incubate for 20 hours at 37° C. in a humidified chamber. The cells then were separated by centrifuging at 800 rpm for 5 minutes at room temperature. An aliquot of 180 μL of supernatant was transferred to a new plate for determination of TNFα concentration. TNFα protein in the cell supernatant fluids was measured using a commercially available enzyme-linked immunosorbent assay (ELISA) (CYTOSCREEN® Immunoassay Kit from Biosource International).
The cell-based assay provided the following results for various pyrrolidine compounds of the present invention. The EC50 values (i.e., effective concentration of the compound capable of inhibiting 50% of the total TNFα) illustrate the ability of the present compounds to inhibit LPS-stimulated TNFα release from human PBL.

recombinant human PDE4 [2] = molecular target: T1, recombinant human PDE4; assay: PDE4 inhibition, charcoal separation [32P]cAMP phosphodiesterase assay; type: biochemical
T1 construct: PDE4 IC50; other: human recombinant PDE4
Protocol: The compounds of structural formula (II) were tested for an ability to inhibit PDE4. The ability of a compound to inhibit PDE4 activity is related to the IC50 value for the compound, i.e., the concentration of inhibitor required for 50% inhibition of enzyme activity. The IC50 value for compounds of structural formula (II) were determined using recombinant human PDE4.
Recombinant production of human PDE1B, PDE2, PDE4A, PDE4B, PDE4C, PDE4D, PDE5, and PDE7 was carried out similarly to that described in Example 7 of U.S. Pat. No. 5,702,936, incorporated herein by reference, except that the yeast transformation vector employed, which is derived from the basic ADH2 plasmid described in Price et al., Methods in Enzymology, 185, pp. 308-318 (1990), incorporated yeast ADH2 promoter and terminator sequences and the Saccharomyces cerevisiae host was the protease-deficient strain BJ2-54 deposited on Aug. 31, 1998 with the American Type Culture Collection, Manassas, Va., under accession number ATCC 74465. Transformed host cells were grown in 2×SC-leu medium, pH 6.2, with trace metals, and vitamins. After 24 hours, YEP medium-containing glycerol was added to a final concentration of 2×YET/3% glycerol. Approximately 24 hr later, cells were harvested, washed, and stored at −70° C.
Phosphodiesterase activity of the preparations was determined as follows. PDE assays utilizing a charcoal separation technique were performed essentially as described in Loughney et al. (1996). In this assay, PDE activity converts [32P]cAMP or [32P]cGMP to the corresponding [32P]5′-AMP or [32P]5′-GMP in proportion to the amount of PDE activity present. The [32P]5′-AMP or [32P]5′-GMP then was quantitatively converted to free [32P]phosphate and unlabeled adenosine or guanosine by the action of snake venom 5′-nucleotidase. […] The assay was performed at 30° C. in a 100 μL reaction mixture containing (final concentrations) 40 mM Tris HCl (pH 8.0), 1 μM ZnSO4, 5 mM MgCl2, and 0.1 mg/mL bovine serum albumin (BSA). Alternatively, in assays assessing PDE1-specific activity, incubation mixtures further incorporated the use of 0.1 mM CaCl2 and 10 μg/mL calmodulin. PDE enzyme was present in quantities that yield <30% total hydrolysis of substrate (linear assay conditions). The assay was initiated by addition of substrate (1 mM [32P]cAMP or cGMP), and the mixture was incubated for 12 minutes. Seventy-five (75) μg of Crotalus atrox venom then was added, and the incubation was continued for 3 minutes (15 minutes total). The reaction was stopped by addition of 200 μL of activated charcoal (25 mg/mL suspension in 0.1 M […], pH 4). After centrifugation (750×g for 3 minutes) to sediment the charcoal, a sample of the supernatant was taken for radioactivity determination in a scintillation counter and the PDE activity was calculated.
Inhibitor analyses were performed similarly to the method described in Loughney et al., J. Biol. Chem., 271, pp. 796-806 (1996), except both cGMP and cAMP were used, and substrate concentrations were kept below 32 nM, which is far below the Km of the tested PDEs.

[3] = in vivo; cited from earlier work
recombinant human PDE4 [4] = conditions: reported value; read-out: IC50 with respect to inhibiting recombinant human PDE4; cited from earlier work

| Compound | Mobility (% activity at 50 mg/kg dose) (female Balb/c mice) [%] | pEC50 [1] | pIC50 (recombinant human PDE4 [2]) | Emetic potential relative to the (+)-enantiomer [3] | pIC50 (recombinant human PDE4 [4]) | LPS-induced TNFα secretion from human lymphocytes ([1]; preliminary experiments) |
| --- | --- | --- | --- | --- | --- | --- |
| CNC(C)[C@]1(C)CN(C(=O)OC)C[C@H]1c1ccc(OC)c(OC2CCCC2)c1 (mixture of isomers) [Example 19, Methyl (3S,4S)-4-(3-cyclopentyloxy-4-methoxyphenyl)-3-methyl-3-[(methylamino)ethylpyrrolidine Carboxylate] | 145 | 7.23 | 7.29 |  |  |  |
| COc1ccc([C@@H]2CNC(=O)C2)cc1OC1CCCC1 (single isomer, unassigned) [(−)-enantiomer of rolipram] |  |  |  | about ten-fold more emetic than the (+)-enantiomer |  |  |
| COc1ccc([C@@H]2CN(Cc3ccccc3)C[C@@]2(C)C(C)N)cc1OC1CCCC1 (single isomer, unassigned) [Example 9] | 55 | 6.22 | 7.24 |  |  |  |
| COc1ccc(C2CN(Cc3ccccc3)C[C@@]2(C)C(C)N)cc1OC1CCCC1 (stereo partly shown) [Example 20] | 93 | 6.70 | 7.66 |  |  |  |
| COc1ccc(C2CNC(=O)C2)cc1OC1CCCC1 (stereo not shown) [Rolipram, reference compound] |  |  |  |  | ~6.70 | inhibit LPS-induced TNFα secretion from human lymphocytes in a dose-dependent fashion |
| COC(=O)N1CC(c2ccc(OC)c(OC3CCCC3)c2)C(C)(C(C)=O)C1 (stereo not shown) [structural formula (I)] |  |  |  |  | ~8.70 |  |

Reference: patent publication US6680336B2, “Cyclic AMP-specific phosphodiesterase inhibitors” (ICOS Corporation, priority 1999, dated 2004)
